# Patent US3989730A, “Bone-seeking technetium-99m complex” (priority 1973, dated 1976)
# Like-named read-outs stand apart in the source and are kept apart here.
# What was measured:
# [1] = cited from earlier work
# [2] = Simultaneous distribution of 99mTc-EHDP and 85Sr in rabbits at 1-24 hours after intravenous injection; type: in vivo, adult New Zealand albino rabbits; conditions: for Blood, % Dose in Whole Organ: blood as 7 % of body weight; for Bone(Avg), % dose in whole organ: bone as 10 % of body weight; for Marrow, % Dose in Whole Organ: marrow as 2.2 % of body weight
# Procedure: Adult New Zealand albino rabbits having an average weight of 3.8 kg were utilized. Strontium-85 was employed as a standard for comparison. […] Each dosage is contained in a volume of 1 ml.
# Multiple samples were counted from the tibia, femur, spine and pelvic bones; the total activity in the skeleton was estimated by assuming the whole skeleton consisted of equal proportions by weight of tibia, spine, femur and pelvis and that the skeletal mass was 10% of the body weight. […] The whole liver and both kidneys were weighed and multiple samples from each were counted to measure the total activity in each organ.
# [3] = 2 Hrs
# [4] = tested on: callous of three week-old fractures of tibia; assay: Localization in callous of three week-old tibial fractures (rabbits), compared with strontium-85; type: in vivo, albino rabbits
# Procedure: Adult New Zealand albino rabbits having an average weight of 3.8 kg were utilized. Strontium-85 was employed as a standard for comparison. In a typical experiment 20-250 μCi (i.e., containing approximately 1 mg/kg as the free acid of body weight) of 99mTc EHDP were injected intravenously into the rabbits through the marginal ear vein and compared with 10-20 μ Ci 85 Sr chloride administered simutaneously. Each dosage is contained in a volume of 1 ml.
# The animals were sacrificed serially from 1 to 24 hours after injection and the activities in major organs were determined by counting multiple samples from each organ in a scintillation well counter (the technetium-99m counts were corrected for the Compton contributions from the strontium-85 activity in the technetium-99m energy window). Multiple samples were counted from the tibia, femur, spine and pelvic bones; the total activity in the skeleton was estimated by assuming the whole skeleton consisted of equal proportions by weight of tibia, spine, femur and pelvis and that the skeletal mass was 10% of the body weight. The red marrow was sampled from the femur and the total marrow was assumed to be 2.2% of the total body weight. Similarly, blood volume was assumed to be 7% and the skeletal muscle 43% of the body weight. The whole liver and both kidneys were weighed and multiple samples from each were counted to measure the total activity in each organ.
# In another series of experiments carried out as described above, localization of technetium from its tin-phosphonate complex was determined in the callous of three week-old fractures of tibia in albino rabbits, again in comparison with strontium-85. Comparative radioassay of technetium-99m administered as the pertechnetate was measured in the callous of tibial fractures in rabbits at one and four hours after administration.
substance,measurement,setting,value
technetium-99m,external photon yield,[1]; gamma emission of 140 KeV,90%
same,half-life of radionuclide,[1]; radioactive decay,6 h
"tin-1-hydroxy-ethane-1,1-diphosphonate [99mTc-EHDP]","Blood, % dose / 1 % body weight",[2]; 1 Hr,1.23 % dose / 1 % body weight
same,"Bone(Avg), % dose / 1 % body weight",[2]; 1 Hr,4.66 % dose / 1 % body weight
same,"Femur, % dose / 1 % body weight",[2]; 1 Hr,3.85 % dose / 1 % body weight
same,"Kidneys, % Dose in Whole Organ",[2]; 1 Hr,2.40 % dose
same,"Kidneys, % dose / 1 % body weight",[2]; 1 Hr,3.93 % dose / 1 % body weight
same,"Liver, % Dose in Whole Organ",[2]; 1 Hr,0.80 % dose
same,"Liver, % dose / 1 % body weight",[2]; 1 Hr,0.30 % dose / 1 % body weight
same,"Marrow, % dose / 1 % body weight",[2]; 1 Hr,0.36 % dose / 1 % body weight
same,"Muscle, % dose / 1 % body weight",[2]; 1 Hr,0.15 % dose / 1 % body weight
same,"One Femur, % Dose in Whole Organ",[2]; 1 Hr,0.82 % dose
same,"Pelvis, % dose / 1 % body weight",[2]; 1 Hr,7.15 % dose / 1 % body weight
same,"Spine, % dose / 1 % body weight",[2]; 1 Hr,5.87 % dose / 1 % body weight
same,"Tibia, % dose / 1 % body weight",[2]; 1 Hr,2.17 % dose / 1 % body weight
same,"Urine, % Dose",[2]; 1 Hr,30.9 % dose
same,"Blood, % Dose in Whole Organ",[2]; 1 Hr,8.61 % dose
same,"Bone(Avg), % dose in whole organ",[2]; 1 Hr,46.6 % dose
same,"Marrow, % Dose in Whole Organ",[2]; 1 Hr,0.70 % dose
same,"Blood, % dose / 1 % body weight",[2]; 2 Hrs,0.37 % dose / 1 % body weight
same,"Bone(Avg), % dose / 1 % body weight",[2]; 2 Hrs,4.82 % dose / 1 % body weight
same,"Femur, % dose / 1 % body weight",[2]; 2 Hrs,3.94 % dose / 1 % body weight
same,"Kidneys, % Dose in Whole Organ",[2]; 2 Hrs,1.22 % dose
same,"Kidneys, % dose / 1 % body weight",[2]; 2 Hrs,2.72 % dose / 1 % body weight
same,"Liver, % Dose in Whole Organ",[2]; 2 Hrs,0.42 % dose
same,"Liver, % dose / 1 % body weight",[2]; 2 Hrs,0.18 % dose / 1 % body weight
same,"Marrow, % dose / 1 % body weight",[2]; 2 Hrs,0.17 % dose / 1 % body weight
same,"Muscle, % dose / 1 % body weight",[2]; 2 Hrs,0.04 % dose / 1 % body weight
same,"One Femur, % Dose in Whole Organ",[2]; 2 Hrs,0.84 % dose
same,"Pelvis, % dose / 1 % body weight",[2]; 2 Hrs,7.40 % dose / 1 % body weight
same,"Spine, % dose / 1 % body weight",[2]; 2 Hrs,5.44 % dose / 1 % body weight
same,"Tibia, % dose / 1 % body weight",[2]; 2 Hrs,2.49 % dose / 1 % body weight
same,"Urine, % Dose","[2]; 2 Hrs, 1 mg/kg",51.8 % dose
same,"Blood, % Dose in Whole Organ",[2]; 2 Hrs,2.58 % dose
same,"Bone(Avg), % dose in whole organ",[2]; 2 Hrs,48.2 % dose
same,"Marrow, % Dose in Whole Organ",[2]; 2 Hrs,0.38 % dose
same,"Blood, % dose / 1 % body weight",[2]; 4 Hrs,0.13 % dose / 1 % body weight
same,"Bone(Avg), % dose / 1 % body weight",[2]; 4 Hrs,4.74 % dose / 1 % body weight
same,"Femur, % dose / 1 % body weight",[2]; 4 Hrs,3.86 % dose / 1 % body weight
same,"Kidneys, % Dose in Whole Organ",[2]; 4 Hrs,0.94 % dose
same,"Kidneys, % dose / 1 % body weight",[2]; 4 Hrs,1.95 % dose / 1 % body weight
same,"Liver, % Dose in Whole Organ",[2]; 4 Hrs,0.28 % dose
same,"Liver, % dose / 1 % body weight",[2]; 4 Hrs,0.11 % dose / 1 % body weight
same,"Marrow, % dose / 1 % body weight",[2]; 4 Hrs,0.38 % dose / 1 % body weight
same,"Muscle, % dose / 1 % body weight",[2]; 4 Hrs,0.03 % dose / 1 % body weight
same,"One Femur, % Dose in Whole Organ",[2]; 4 Hrs,0.81 % dose
same,"Pelvis, % dose / 1 % body weight",[2]; 4 Hrs,7.41 % dose / 1 % body weight
same,"Spine, % dose / 1 % body weight",[2]; 4 Hrs,5.52 % dose / 1 % body weight
same,"Tibia, % dose / 1 % body weight",[2]; 4 Hrs,2.16 % dose / 1 % body weight
same,"Urine, % Dose","[2]; 4 Hrs, 1 mg/kg",53.4 % dose
same,"Blood, % Dose in Whole Organ",[2]; 4 Hrs,0.89 % dose
same,"Bone(Avg), % dose in whole organ",[2]; 4 Hrs,47.4 % dose
same,"Marrow, % Dose in Whole Organ",[2]; 4 Hrs,0.83 % dose
same,"Blood, % dose / 1 % body weight",[2]; 24 Hrs,0.07 % dose / 1 % body weight
same,"Bone(Avg), % dose / 1 % body weight",[2]; 24 Hrs,4.14 % dose / 1 % body weight
same,"Femur, % dose / 1 % body weight",[2]; 24 Hrs,3.42 % dose / 1 % body weight
same,"Kidneys, % Dose in Whole Organ",[2]; 24 Hrs,0.63 % dose
same,"Kidneys, % dose / 1 % body weight",[2]; 24 Hrs,1.29 % dose / 1 % body weight
same,"Liver, % Dose in Whole Organ",[2]; 24 Hrs,0.43 % dose
same,"Liver, % dose / 1 % body weight",[2]; 24 Hrs,0.28 % dose / 1 % body weight
same,"Marrow, % dose / 1 % body weight",[2]; 24 Hrs,0.19 % dose / 1 % body weight
same,"Muscle, % dose / 1 % body weight",[2]; 24 Hrs,0.02 % dose / 1 % body weight
same,"One Femur, % Dose in Whole Organ",[2]; 24 Hrs,0.76 % dose
same,"Pelvis, % dose / 1 % body weight",[2]; 24 Hrs,5.70 % dose / 1 % body weight
same,"Spine, % dose / 1 % body weight",[2]; 24 Hrs,5.30 % dose / 1 % body weight
same,"Tibia, % dose / 1 % body weight",[2]; 24 Hrs,2.10 % dose / 1 % body weight
same,"Blood, % Dose in Whole Organ",[2]; 24 Hrs,0.49 % dose
same,"Bone(Avg), % dose in whole organ",[2]; 24 Hrs,41.5 % dose
same,"Marrow, % Dose in Whole Organ",[2]; 24 Hrs,0.42 % dose
same,skeletal concentrations compared with 85Sr,[2]; rabbits,similar
same,soft tissue and blood concentrations compared with 85Sr,"[2]; various times, rabbits",much lower than those for 85 Sr
same,"Blood, % Dose in Whole Organ",[3]; EHDP 0.01 mg/kg,0.99 % Dose
same,"Kidneys, % Dose in Whole Organ",[3]; EHDP 0.01 mg/kg,0.81 % Dose
same,"Liver, % Dose in Whole Organ",[3]; EHDP 0.01 mg/kg,0.53 % Dose
same,"Marrow, % Dose in Whole Organ",[3]; EHDP 0.01 mg/kg,0.34 % Dose
same,"Muscle, % Dose in Whole Organ",[3]; EHDP 0.01 mg/kg,0.78 % Dose
same,"One Femur, % Dose in Whole Organ",[3]; EHDP 0.01 mg/kg,2.20 % Dose
same,"One Tibia, % Dose in Whole Organ",[3]; EHDP 0.01 mg/kg,2.05 % Dose
same,"Urine, % Dose",[3]; EHDP 0.01 mg/kg,46.7 % Dose
same,"Blood, % Dose in Whole Organ",[3]; EHDP 0.05 mg/kg,1.35 % Dose
same,"Kidneys, % Dose in Whole Organ",[3]; EHDP 0.05 mg/kg,2.9 % Dose
same,"Liver, % Dose in Whole Organ",[3]; EHDP 0.05 mg/kg,1.61 % Dose
same,"Marrow, % Dose in Whole Organ",[3]; EHDP 0.05 mg/kg,0.78 % Dose
same,"Muscle, % Dose in Whole Organ",[3]; EHDP 0.05 mg/kg,1.33 % Dose
same,"One Femur, % Dose in Whole Organ",[3]; EHDP 0.05 mg/kg,2.44 % Dose
same,"One Tibia, % Dose in Whole Organ",[3]; EHDP 0.05 mg/kg,2.22 % Dose
same,"Urine, % Dose",[3]; EHDP 0.05 mg/kg,37.3 % Dose
same,"Blood, % Dose in Whole Organ",[3]; EHDP 0.1 mg/kg,1.02 % Dose
same,"Kidneys, % Dose in Whole Organ",[3]; EHDP 0.1 mg/kg,0.63 % Dose
same,"Liver, % Dose in Whole Organ",[3]; EHDP 0.1 mg/kg,0.19 % Dose
same,"Marrow, % Dose in Whole Organ",[3]; EHDP 0.1 mg/kg,0.20 % Dose
same,"Muscle, % Dose in Whole Organ",[3]; EHDP 0.1 mg/kg,0.98 % Dose
same,"One Femur, % Dose in Whole Organ",[3]; EHDP 0.1 mg/kg,2.82 % Dose
same,"One Tibia, % Dose in Whole Organ",[3]; EHDP 0.1 mg/kg,2.44 % Dose
same,"Urine, % Dose",[3]; EHDP 0.1 mg/kg,30.4 % Dose
same,"Blood, % Dose in Whole Organ",[3]; EHDP 0.5 mg/kg,1.503 % Dose
same,"Kidneys, % Dose in Whole Organ",[3]; EHDP 0.5 mg/kg,1.10 % Dose
same,"Liver, % Dose in Whole Organ",[3]; EHDP 0.5 mg/kg,0.260 % Dose
same,"Marrow, % Dose in Whole Organ",[3]; EHDP 0.5 mg/kg,0.19 % Dose
same,"Muscle, % Dose in Whole Organ",[3]; EHDP 0.5 mg/kg,1.22 % Dose
same,"One Femur, % Dose in Whole Organ",[3]; EHDP 0.5 mg/kg,1.75 % Dose
same,"One Tibia, % Dose in Whole Organ",[3]; EHDP 0.5 mg/kg,1.43 % Dose
same,"Urine, % Dose",[3]; EHDP 0.5 mg/kg,55.37 % Dose
same,"Callus, % dose / 1 % body weight",[4]; 1 Hr,24.7 % dose / 1 % body weight
same,"Callus, % dose / 1 % body weight",[4]; 4 Hrs,28.9 % dose / 1 % body weight
same,concentration in the callous compared with 85Sr,[4]; rabbits,somewhat lower than that of 85 Sr
